In paper PMC4872784 (Oncotarget, 2016):

Tests used:
[1] = tested on: MOLM14 cells; assay: cell cycle distribution (BrdU/7-AAD flow cytometry); assay type: cell-based, human; conditions: for sub-G1-phase cells: vehicle 2%; for S-phase cells: vehicle 38%; for G1-phase cells: vehicle 47%
Experimental: After cell debris was gated out using FSC/SSC parameters, 10,000 cellular events were collected per sample. Data was analyzed and fluorescence compensation performed using FlowJo software, version 10 (Tree Star, Ashland, OR). A. Representative plots from a single experiment.
Cells were pulse-labeled with 10 μM 5-bromo-2-deoxyuridine (BrdU, BD Pharmingen, San Diego, CA) for 90min (37°C), washed in PBS, then fixed in 70% ethanol (1-3d, −20°C). DNA was denatured (2 M HCl, 30min, room temperature) and neutralized (0.1 M Na2B4O7, 10min, room temperature). Cells were stained with APC-conjugated anti-BrdU antibody (BD Pharmingen) and 7-AAD (BioLegend, San Diego, CA), and analyzed by flow cytometry.

[2] = tested on: MOLM14 cells; assay: viable cell counts via Trypan Blue dye exclusion, 48h; assay type: cell-based, human
Experimental: (§1) A. Quantification of the percentage of early apoptotic cells (Annexin-V+/7-AAD-) from three independent experiments in which cells were stained for apoptosis with 7-AAD and Annexin-V then analyzed by flow cytometry. […] C. […] 16h after addition of drugs, cells were washed and analyzed by flow cytometry for CM-H2DCFDA fluorescence (indicating total ROS generation) in the FL1 channel. Mean Fluorescence Intensity (MFI) was normalized to that of vehicle control (0.5% DMSO) with no pretreatment. […] Viable cell counts, obtained via Trypan Blue dye exclusion, were normalized to vehicle (0.02% DMSO)-treated samples +/– pretreatment.
In most experiments, cytotoxicity was assessed using alamarBlue assays (Life Technologies, Grand Island, NY). In experiments using NAC and DFO, which can interfere with alamarBlue assay performance, Trypan Blue dye exclusion was used instead.

[3] = tested on: KOPN8 cells; assay: alamarBlue cytotoxicity assay, 48h; assay type: cell-based, human; conditions: RPMI + 10% FBS
Experimental: (§2) Following subtraction of background fluorescence from all wells, fluorescence of drug-treated cells was normalized to that of vehicle (<0.5% DMSO)-treated cells to determine the effect of each drug concentration on viability. Each cell line was tested in triplicate and in at least three independent experiments. IC50 (concentration that inhibits cell growth by 50%) values were calculated using CompuSyn software (ComboSyn, Paramus, NJ). […] In addition several cell lines were initially cultured and tested in alternative media (Supplementary Table S2). […] Colony counts were normalized to vehicle-treated controls (100%). Three independent experiments were performed.
(§3) In most experiments, cytotoxicity was assessed using alamarBlue assays (Life Technologies, Grand Island, NY). In experiments using NAC and DFO, which can interfere with alamarBlue assay performance, Trypan Blue dye exclusion was used instead. […]
(§4) experiments performed in triplicate. […] Age refers to age […]
(§5) at the time of leukemia diagnosis of the patient from whom the cell line was derived. (–) Indicates information unavailable.
(§6) *Cell lines with FLT3/ITD mutations.
(§7) *The MV-4–11 cell line was derived from a patient with a biphenotypic B-myelomonocytic leukemia; K562 was derived […]
(§8) 1A. p53 status was obtained from http://cancer.sanger.ac.uk/cell_lines/cbrowse/all and http://p53.free.fr/Database/Cancer_ cell_lines/Leukemia_cancer. html. WT: wild type. Mut: mutant. SM: single mutation. DM: double mutation. MM: multiple mutations. Fs: Frameshift mutation. Null: protein expression undetectable. […]
(§9) measured via alamarBlue assay. […]

[4] = tested on: MOLM14 cells; assay: alamarBlue cytotoxicity assay, 48h; assay type: cell-based, human; conditions: for IC50: MOLM14 (AML), 48h, RPMI + 10% FBS
Experimental: as §2, §3, §4, §5, §6, §7, §8, §9

[5] = tested on: MOLM14 cells; assay: total ROS generation (CM-H2DCFDA flow cytometry); assay type: cell-based, human; conditions: 16h
Experimental: as §1
Cells were preloaded with 5 μM 5-(and-6)-chloromethyl-2′,7′-dichlorodihydrofluorescein diacetate (CM-H2DCFDA, Life Technologies) in PBS (30min, 37°C), then washed before drug treatment. Following 16h incubation with drugs, cells were analyzed by flow cytometry.

[6] = tested on: NSG mice; assay: tolerability / maximum-tolerated dose
Experimental: Blood samples were collected via
retro-orbital bleeding into EDTA-coated tubes from MOLM14 NSG mice 1 day A-D. and 7 days E-H. after completion of a 5-day drug
CBCs were determined using a Hemavet 950 analyzer.
Normal blood samples were obtained from normal, untreated NSG mice (n = 37) over several years.

[7] = tested on: normal human CD34+ HSPCs; assay: clonogenicity of normal HSPCs; assay type: cell-based
Experimental: Cryopreserved human CD34^+ HSPCs from normal adult donors (Cellular Therapy and Cell Processing Facility, Fred Hutchinson Cancer Center, Seattle, WA) were thawed and cultured for 24h in StemSpanSFEM medium (Stemcell Technologies, Vancouver, BC, Canada) containing 100 ng/ml recombinant human (rh) stem cell factor, 20 ng/ml rh thrombopoietin, and 100 ng/ml rh FLT3 ligand (PeproTech, Rocky Hill, NJ), in the presence of the indicated drug concentrations prior to plating for clonogenic assays.
Cells pretreated with ART-838, AS, or vehicle for 24h were diluted and plated in MethoCult medium (Stemcell Technologies). After 7-10d (leukemia cells) or 10-14d (HSPCs), colonies (≥20 cells) were enumerated.
Supplementary Figure S5: Effects of ART-838 and AS on clonogenicity of normal human CD34+ HSPCs. Normal human CD34+ HSPCs were pretreated with the indicated concentrations of ART-838, AS, or vehicle (0.5% DMSO) for 24 h then cultured in semi-solid medium for 10–14d before colonies were enumerated. A. Total hematopoietic colony counts, normalized to vehicle-treated controls (100%) and B. counts of types of colonies, i.e. erythroid (E); granulocyte/macrophage (sum of GM, G and M, combined) and multilineage progenitors (GEMM). Three independent experiments were performed. Data are represented as mean +/– SEM.
Supplementary Figure S6: ART-838 and AS concentration-response curves for KOPN8 and MOLM14. […]

C[C@H]1[C@H](OC(=O)CCC(=O)O)O[C@@H]2O[C@@]3(C)CC[C@H]4[C@H](C)CC[C@@H]1[C@@]24OO3 [AS, artesunate] was tested, and the sub-G1-phase cells ([1]; 5 μM AS, 24h) was > 10%, the S-phase cells ([1]; 5 μM AS, 24h) was < 7% and the G1-phase cells ([1]; 5 μM AS, 24h) was > 61%. It also gave an IC50 ([2]; Homo sapiens, MOLM-14, MOLM14, 48h, Pre-Treatment: CTRL, unit inferred, read-out: IC50) of 885 ± 57 nM, an IC50 ([3]; Homo sapiens, KOPN-8, KOPN8 (B-ALL)) of 459 ± 49 nM and an inhibition at 5 µM ([4]; Homo sapiens, MOLM-14, 48 h, MOLM14, 5 μM AS, alamarBlue, read-out: growth inhibition by 48h) of 90 to 99%. The IC90 ([4]; Homo sapiens, MOLM-14, MOLM14) was 5000 nM, the IC50 ([4]; Homo sapiens, MOLM-14) was 825 nM and the “total cellular ROS levels” value ([5]; AS 5 μM) was “significantly increased total cellular ROS levels”. For the same molecule, the clinical neurotoxicity ([6]; mouse, in vivo) was “no clinical neurotoxicity was observed”, the dose-limiting toxicity ([6]; mouse, in vivo, po) was “acute weight loss” and the “reduction of normal erythroid and monogranulocytic colony-forming cells” value ([7]; 10 μM AS, 24h pretreatment) was < 25%.

In the case of C[C@@H]1CCC2[C@@H](C)[C@@H](CC(COP(=O)(Oc3ccccc3)Oc3ccccc3)C[C@H]3O[C@@H]4O[C@@]5(C)CCC6[C@H](C)CCC([C@H]3C)[C@]64OO5)O[C@@H]3O[C@@]4(C)CCC1[C@@]23OO4 (stereo partly shown) [ART-838, artemisinin-derived trioxane diphenylphosphate dimer 838], the sub-G1-phase cells ([1]; 0.1 μM ART-838, 24h) is reported as > 10%, the S-phase cells ([1]; 0.1 μM ART-838, 24h) is reported as < 7% and the G1-phase cells ([1]; 0.1 μM ART-838, 24h) is reported as > 61%. The “fold resistance to growth inhibition after DFO pretreatment” value ([2]; MOLM14, DFO 11 μM pretreatment) was 3 fold, the “fold resistance to growth inhibition after NAC pretreatment” value ([2]; MOLM14, NAC 25 μM pretreatment) was “not increased” and the IC50 ([3]; KOPN8 (B-ALL)) was 12 ± 2 nM. For the same molecule, the IC90 ([4]; MOLM14) was 100 nM, the IC50 [4] was 25 nM and the “growth inhibition by 48h” value ([4]; MOLM14, 0.1 μM ART-838, alamarBlue) was 90-99%. For the same molecule, the “total cellular ROS levels” value ([5]; ART-838 0.1 μM) was “significantly increased total cellular ROS levels”, the “chronic MTD” value ([6]; 5 days/week by oral gavage, NSG mice) was 40 to 50 mg/kg and the dose-limiting toxicity ([6]; NSG mice, oral gavage) was “acute weight loss”. For the same molecule, the clinical neurotoxicity ([6]; NSG mice, prior toxicity experiments at approximate chronic MTD) was “no clinical neurotoxicity was observed”, the “complete and differential blood cell counts” value ([6]; normal NSG mice, 5-day cycle ART-838 50 mg/kg/d, days 6 and 12) was “normal complete and differential blood cell counts” and the “single dose MTD” value ([6]; oral gavage, NSG mice) was 500 to 600 mg/kg. The “reduction of normal erythroid and monogranulocytic colony-forming cells” value ([7]; 1 μM ART-838, 24h pretreatment) was < 25%.
